Where “and” joins values, the source holds several entries; their conditions need not be identical. Equal entries are not always repeated.
Conditions: 101.33 kPa, Liquid

CCCCCCCC[n+]1ccn(C)c1.F[P-](F)(F)(F)(F)F [1-octyl-3-methylimidazolium hexafluorophosphate]
Conditions	mass density [kg/m3]	viscosity
369.26 K, Cone and plate viscometry	–	26.6 mPa·s
369.99 K, Cone and plate viscometry	–	26 mPa·s and 26.4 mPa·s
370.73 K, Cone and plate viscometry	–	25.4 mPa·s and 25.8 mPa·s
371.47 K, Cone and plate viscometry	–	25.2 mPa·s
371.49 K, Cone and plate viscometry	–	24.8 mPa·s
372.22 K, Cone and plate viscometry	–	24.8 mPa·s
372.23 K, Cone and plate viscometry	–	24.3 mPa·s
372.96 K, Cone and plate viscometry	–	24.3 mPa·s
372.97 K, Cone and plate viscometry	–	24.4 mPa·s
373.15 K, Concentric cylinders viscometry	–	24 mPa·s
373.15 K, Vibrating tube method	1181.63	–
373.71 K, Cone and plate viscometry	–	23.3 mPa·s and 23.7 mPa·s
374.44 K, Cone and plate viscometry	–	23.1 mPa·s
374.45 K, Cone and plate viscometry	–	22.9 mPa·s
375.19 K, Cone and plate viscometry	–	22.4 mPa·s and 22.6 mPa·s
375.94 K, Cone and plate viscometry	–	22.1 mPa·s and 22.3 mPa·s
376.68 K, Cone and plate viscometry	–	21.9 mPa·s
376.69 K, Cone and plate viscometry	–	22 mPa·s
377.41 K, Cone and plate viscometry	–	21.8 mPa·s
377.42 K, Cone and plate viscometry	–	21.6 mPa·s
378.16 K, Cone and plate viscometry	–	21.1 mPa·s
378.9 K, Cone and plate viscometry	–	20.7 mPa·s
378.91 K, Cone and plate viscometry	–	20.6 mPa·s
379.64 K, Cone and plate viscometry	–	20.3 mPa·s
379.65 K, Cone and plate viscometry	–	20.4 mPa·s
380.39 K, Cone and plate viscometry	–	19.7 mPa·s and 19.9 mPa·s
381.13 K, Cone and plate viscometry	–	19.6 mPa·s
381.14 K, Cone and plate viscometry	–	19.4 mPa·s
381.87 K, Cone and plate viscometry	–	19.2 mPa·s
381.88 K, Cone and plate viscometry	–	19 mPa·s
382.62 K, Cone and plate viscometry	–	18.5 mPa·s and 18.7 mPa·s
383.35 K, Cone and plate viscometry	–	18.2 mPa·s
383.36 K, Cone and plate viscometry	–	18.4 mPa·s
384.1 K, Cone and plate viscometry	–	18.2 mPa·s
384.11 K, Cone and plate viscometry	–	17.9 mPa·s
384.85 K, Cone and plate viscometry	–	17.7 mPa·s and 17.9 mPa·s
385.6 K, Cone and plate viscometry	–	17.4 mPa·s and 17.6 mPa·s
386.33 K, Cone and plate viscometry	–	16.8 mPa·s
386.34 K, Cone and plate viscometry	–	17 mPa·s
387.07 K, Cone and plate viscometry	–	16.6 mPa·s
387.08 K, Cone and plate viscometry	–	16.8 mPa·s
387.82 K, Cone and plate viscometry	–	16.5 mPa·s and 16.7 mPa·s
388.56 K, Cone and plate viscometry	–	16.6 mPa·s
388.57 K, Cone and plate viscometry	–	16.5 mPa·s
389.3 K, Cone and plate viscometry	–	16 mPa·s
389.32 K, Cone and plate viscometry	–	16.2 mPa·s
390.04 K, Cone and plate viscometry	–	15.8 mPa·s
390.05 K, Cone and plate viscometry	–	15.6 mPa·s
390.79 K, Cone and plate viscometry	–	15.3 mPa·s and 15.5 mPa·s
391.53 K, Cone and plate viscometry	–	15.4 mPa·s
391.54 K, Cone and plate viscometry	–	15.1 mPa·s
392.26 K, Cone and plate viscometry	–	14.7 mPa·s
392.28 K, Cone and plate viscometry	–	15.2 mPa·s
393.01 K, Cone and plate viscometry	–	14.6 mPa·s
393.02 K, Cone and plate viscometry	–	14.8 mPa·s
393.75 K, Cone and plate viscometry	–	14.5 mPa·s
393.76 K, Cone and plate viscometry	–	14.3 mPa·s
394.5 K, Cone and plate viscometry	–	14.3 mPa·s
394.51 K, Cone and plate viscometry	–	14.2 mPa·s
395.25 K, Cone and plate viscometry	–	14.1 mPa·s
395.26 K, Cone and plate viscometry	–	14 mPa·s
395.99 K, Cone and plate viscometry	–	13.9 mPa·s and 14 mPa·s
396.73 K, Cone and plate viscometry	–	13.7 mPa·s and 13.9 mPa·s
397.47 K, Cone and plate viscometry	–	13.5 mPa·s
397.48 K, Cone and plate viscometry	–	13.5 mPa·s
398.22 K, Cone and plate viscometry	–	13.2 mPa·s and 13.4 mPa·s
398.96 K, Cone and plate viscometry	–	13 mPa·s
398.97 K, Cone and plate viscometry	–	13.1 mPa·s
399.7 K, Cone and plate viscometry	–	12.9 mPa·s and 13 mPa·s
400.44 K, Cone and plate viscometry	–	12.9 mPa·s
400.45 K, Cone and plate viscometry	–	12.7 mPa·s
401.19 K, Cone and plate viscometry	–	12.6 mPa·s and 12.8 mPa·s
401.93 K, Cone and plate viscometry	–	12.3 mPa·s
401.94 K, Cone and plate viscometry	–	12.6 mPa·s
402.67 K, Cone and plate viscometry	–	12.2 mPa·s and 12.4 mPa·s
403.42 K, Cone and plate viscometry	–	12.1 mPa·s and 12.3 mPa·s
404.16 K, Cone and plate viscometry	–	12 mPa·s and 12.1 mPa·s
404.9 K, Cone and plate viscometry	–	11.7 mPa·s
404.91 K, Cone and plate viscometry	–	12 mPa·s
405.64 K, Cone and plate viscometry	–	11.5 mPa·s and 11.6 mPa·s
406.39 K, Cone and plate viscometry	–	11.3 mPa·s and 11.5 mPa·s
407.13 K, Cone and plate viscometry	–	11.2 mPa·s and 11.4 mPa·s
407.87 K, Cone and plate viscometry	–	11.3 mPa·s
407.88 K, Cone and plate viscometry	–	11.1 mPa·s
408.62 K, Cone and plate viscometry	–	10.6 mPa·s and 10.7 mPa·s
409.35 K, Cone and plate viscometry	–	10.4 mPa·s and 10.5 mPa·s
410.1 K, Cone and plate viscometry	–	10.3 mPa·s and 10.4 mPa·s
410.84 K, Cone and plate viscometry	–	10.3 mPa·s
410.85 K, Cone and plate viscometry	–	10.2 mPa·s
411.58 K, Cone and plate viscometry	–	10.1 mPa·s
411.59 K, Cone and plate viscometry	–	10.2 mPa·s
412.33 K, Cone and plate viscometry	–	10 mPa·s and 10.1 mPa·s
413.07 K, Cone and plate viscometry	–	9.6 mPa·s and 9.9 mPa·s
413.82 K, Cone and plate viscometry	–	9.6 mPa·s and 9.7 mPa·s

Source: the NIST ThermoML archive (doi:10.1016/j.jct.2018.04.018)
